{"source": "paper PMC5651230", "about": "“TMC2 Modifies Permeation Properties of the Mechanoelectrical Transducer Channel in Early Postnatal Mouse Cochlear Outer Hair Cells” (Frontiers in Molecular Neuroscience, 2017)", "key": {"[1]": {"molecular_target": "T1, MET channel of Tmc2−/− outer hair cells (TMC1-containing channel) (Mus musculus, UniProt Q8R4P5)", "T1 construct": "native MET channel complex in apical cochlear OHCs (P5-P6) of Tmc2 knockout mice; TMC1 the remaining TMC; full composition not known; with LHFPL tetraspan subfamily member 5 protein; Transmembrane inner ear expressed protein", "T1 sequence (Q8R4P5 1-757)": "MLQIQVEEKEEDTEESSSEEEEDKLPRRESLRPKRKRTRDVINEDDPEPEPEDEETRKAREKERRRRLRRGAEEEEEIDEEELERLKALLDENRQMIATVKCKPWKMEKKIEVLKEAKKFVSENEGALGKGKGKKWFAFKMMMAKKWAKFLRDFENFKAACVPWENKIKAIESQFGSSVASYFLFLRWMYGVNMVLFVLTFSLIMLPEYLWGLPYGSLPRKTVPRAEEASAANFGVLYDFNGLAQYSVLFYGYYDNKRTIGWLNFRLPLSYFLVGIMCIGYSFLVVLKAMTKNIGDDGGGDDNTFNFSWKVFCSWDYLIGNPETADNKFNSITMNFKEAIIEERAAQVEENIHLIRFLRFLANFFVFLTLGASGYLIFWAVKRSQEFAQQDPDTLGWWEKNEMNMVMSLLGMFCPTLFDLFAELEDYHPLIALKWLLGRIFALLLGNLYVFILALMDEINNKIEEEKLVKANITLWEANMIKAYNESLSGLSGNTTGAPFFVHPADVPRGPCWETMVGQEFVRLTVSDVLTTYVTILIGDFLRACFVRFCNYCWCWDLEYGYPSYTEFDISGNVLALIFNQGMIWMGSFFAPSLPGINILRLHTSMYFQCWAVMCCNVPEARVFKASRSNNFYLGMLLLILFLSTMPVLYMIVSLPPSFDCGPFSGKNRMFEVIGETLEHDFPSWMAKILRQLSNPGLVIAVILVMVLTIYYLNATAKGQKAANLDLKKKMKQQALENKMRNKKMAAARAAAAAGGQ", "test": "whole-cell patch clamp of OHC, block of MET current (fluid jet), Hill fit", "format": "cell-based", "settings": "extracellular DHS, -81 mV, 1.3 mM Ca2+, pH 7.5, 20-25 °C; permeant open-channel pore blocker; native channel complex of Tmc2 knockout OHCs (P5-P6); read-out: KD"}, "[2]": {"system": "T2, MET channel of Tmc2+/− outer hair cells (TMC1 and TMC2)", "T2 construct": "native MET channel complex in apical cochlear OHCs (P5-P6) of heterozygous control mice; mixture of TMC1 and TMC2 in unknown proportion; with LHFPL tetraspan subfamily member 5 protein; Transmembrane inner ear expressed protein", "test": "whole-cell patch clamp of OHC, block of MET current (fluid jet), Hill fit", "format": "cell-based, Mus musculus", "settings": "extracellular DHS, -81 mV, 1.3 mM Ca2+, pH 7.5, 20-25 °C; permeant open-channel pore blocker; native channel complex of Tmc2 heterozygous OHCs (P5-P6); read-out: KD"}}}
{"compound": "CN[C@@H]1[C@H](O[C@H]2[C@H](O[C@H]3[C@H](O)[C@@H](O)[C@H](NC(=N)N)[C@@H](O)[C@@H]3NC(=N)N)O[C@@H](C)[C@]2(O)CO)O[C@@H](CO)[C@H](O)[C@H]1O", "note": "[dihydrostreptomycin]", "values": [{"measurement": "IC50", "setting": "[1]", "result": "5.9 ± 0.2", "unit": "µM"}, {"measurement": "IC50", "setting": "[2]", "result": "9.1 ± 0.4", "unit": "µM"}]}
